Reference: ChEMBL document CHEMBL3739302, “Synthesis of 5-trifluoromethyl-2-sulfonylpyridine PPARβ/δ antagonists: Effects on the affinity and selectivity towards PPARβ/δ” (Bioorg Med Chem, 2016)
pIC50: −log10 of the molar value. Activity calls are given as the source filed them. No cut-off for these calls is given here.

Legend:
[1] = biological target: T1, Peroxisome proliferator-activated receptor alpha (Homo sapiens) (UniProt Q07869); assay: Binding affinity to GST-PPAR-alpha LBP (unknown origin) at 1 uM by TR-FRET assay
T1 sequence (whole entry): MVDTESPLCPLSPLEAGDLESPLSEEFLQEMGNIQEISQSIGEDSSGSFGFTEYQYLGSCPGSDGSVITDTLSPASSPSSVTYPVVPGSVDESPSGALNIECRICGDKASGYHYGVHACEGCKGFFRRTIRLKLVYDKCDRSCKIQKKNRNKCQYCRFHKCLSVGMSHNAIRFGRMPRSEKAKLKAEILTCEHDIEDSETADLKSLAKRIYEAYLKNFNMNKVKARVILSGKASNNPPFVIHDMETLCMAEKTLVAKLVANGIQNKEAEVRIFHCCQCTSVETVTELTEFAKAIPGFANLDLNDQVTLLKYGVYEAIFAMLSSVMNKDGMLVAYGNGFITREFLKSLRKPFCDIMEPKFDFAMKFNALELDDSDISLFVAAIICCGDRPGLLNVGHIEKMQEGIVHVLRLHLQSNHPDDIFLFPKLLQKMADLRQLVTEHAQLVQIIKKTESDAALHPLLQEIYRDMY

[2] = biological target: T2, Peroxisome proliferator-activated receptor gamma (Homo sapiens) (UniProt P37231); assay: Binding affinity to GST-PPAR-gamma LBP (unknown origin) at 1 uM after 1 hr by TR-FRET assay
T2 sequence (whole entry): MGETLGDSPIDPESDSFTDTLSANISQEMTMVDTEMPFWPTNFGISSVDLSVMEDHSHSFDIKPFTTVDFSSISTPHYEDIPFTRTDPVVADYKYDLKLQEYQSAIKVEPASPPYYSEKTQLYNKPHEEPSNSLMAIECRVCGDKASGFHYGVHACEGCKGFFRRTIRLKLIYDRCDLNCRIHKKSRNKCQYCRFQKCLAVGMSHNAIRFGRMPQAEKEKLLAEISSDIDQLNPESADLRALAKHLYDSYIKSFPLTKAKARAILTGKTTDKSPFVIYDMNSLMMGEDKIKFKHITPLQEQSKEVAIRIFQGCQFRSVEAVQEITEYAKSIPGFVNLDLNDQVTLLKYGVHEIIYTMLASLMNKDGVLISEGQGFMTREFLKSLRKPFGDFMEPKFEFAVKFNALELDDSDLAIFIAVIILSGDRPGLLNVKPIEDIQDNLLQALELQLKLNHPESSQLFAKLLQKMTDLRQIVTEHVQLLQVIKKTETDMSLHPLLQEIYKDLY

[3] = biological target: T3, Peroxisome proliferator-activated receptor delta (Homo sapiens, UniProt Q03181); assay: Binding affinity to GST-PPAR-beta/delta LBP (unknown origin) after 3 hrs by TR-FRET assay
T3 sequence (Q03181 whole entry): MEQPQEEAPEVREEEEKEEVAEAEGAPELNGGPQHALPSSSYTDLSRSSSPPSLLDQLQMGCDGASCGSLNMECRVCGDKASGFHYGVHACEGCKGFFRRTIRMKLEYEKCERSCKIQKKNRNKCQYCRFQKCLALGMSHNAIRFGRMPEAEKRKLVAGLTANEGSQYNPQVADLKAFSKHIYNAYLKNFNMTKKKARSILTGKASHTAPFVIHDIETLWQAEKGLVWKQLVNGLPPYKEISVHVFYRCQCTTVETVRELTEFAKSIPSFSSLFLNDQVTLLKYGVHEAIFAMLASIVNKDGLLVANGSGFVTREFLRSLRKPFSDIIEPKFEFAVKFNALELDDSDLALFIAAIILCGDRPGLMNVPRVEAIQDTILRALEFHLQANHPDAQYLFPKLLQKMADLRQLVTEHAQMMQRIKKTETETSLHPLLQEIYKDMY

[4] = biological target: T3, Peroxisome proliferator-activated receptor delta; assay: Binding affinity to GST-PPAR-beta/delta LBP (unknown origin) after 2 hrs by TR-FRET assay
[5] = biological target: T1, Peroxisome proliferator-activated receptor alpha (Homo sapiens); assay: Binding affinity to GST-PPAR-alpha LBP (unknown origin) at 1 and 10 uM after 1 hr by TR-FRET assay
[6] = biological target: T3, Peroxisome proliferator-activated receptor delta; assay: Binding affinity to GST-PPAR-beta/delta LBP (unknown origin) after 40 mins by TR-FRET assay
[7] = biological target: T3, Peroxisome proliferator-activated receptor delta; assay: Binding affinity to GST-PPAR-beta/delta LBP (unknown origin) after 1 hr by TR-FRET assay
[8] = biological target: T3, Peroxisome proliferator-activated receptor delta; assay: Binding affinity to GST-PPAR-beta/delta LBP (unknown origin) after 20 mins by TR-FRET assay
[9] = biological target: T1, Peroxisome proliferator-activated receptor alpha (Homo sapiens); assay: Binding affinity to GST-PPAR-alpha LBP (unknown origin) at 1 and 10 uM after 24 hrs by TR-FRET assay
[10] = biological target: T2, Peroxisome proliferator-activated receptor gamma (Homo sapiens); assay: Binding affinity to GST-PPAR-gamma LBP (unknown origin) at 1 uM after 24 hrs by TR-FRET assay
[11] = biological target: T4, Peroxisome proliferator-activated receptor delta (Homo sapiens) (UniProt Q03181); assay: Binding affinity to GST-PPAR-beta/delta LBP (unknown origin) at 1 uM after 1 hr by TR-FRET assay
T4 sequence (whole entry): T3 sequence (Q03181 whole entry)

[12] = biological target: T2, Peroxisome proliferator-activated receptor gamma (Homo sapiens); assay: Binding affinity to GST-PPAR-gamma LBP (unknown origin) at 10 uM after 24 hrs by TR-FRET assay
[13] = biological target: T2, Peroxisome proliferator-activated receptor gamma (Homo sapiens); assay: Binding affinity to GST-PPAR-gamma LBP (unknown origin) at 10 uM after 1 hr by TR-FRET assay
[14] = biological target: T1, Peroxisome proliferator-activated receptor alpha (Homo sapiens); assay: Binding affinity to GST-PPAR-alpha LBP (unknown origin) at 1 uM after 2 hrs by TR-FRET assay
[15] = biological target: T3, Peroxisome proliferator-activated receptor delta; assay: Binding affinity to GST-PPAR-beta/delta LBP (unknown origin) after 24 hrs by TR-FRET assay

Compound: CCN(CCS(=O)(=O)c1ccc(C(F)(F)F)cn1)C(=O)c1ccc2ccccc2c1
- Activity [1]: Active

Compound: O=C(COc1ccccc1)NCCS(=O)(=O)c1ccc(C(F)(F)F)cn1
- Activity [1]: Active

Compound: O=C(NCCS(=O)(=O)c1ccc(C(F)(F)F)cn1)c1cccnc1
- Activity [1]: Active

Compound: O=C(NCCS(=O)(=O)c1ccc(C(F)(F)F)cn1)c1cccc2c1CCCC2
- Activity [2]: Active
- Activity [1]: Active

Compound: Cc1nc(-c2ccc(C(F)(F)F)cc2)sc1C(=O)NCCS(=O)(=O)c1ccc(C(F)(F)F)cn1
- pIC50 [3]: 6.55
- pIC50 [4]: 6.52
- Activity [5]: inactive
- Activity [2]: Active
- pIC50 [6]: 6.24
- pIC50 [7]: 6.37
- pIC50 [8]: 6.02
- Activity [9]: inactive

Compound: O=C(NCCS(=O)(=O)c1ccc(C(F)(F)F)cn1)C12CC3CC(CC(C3)C1)C2
- Activity [1]: Active

Compound: O=C(NCCS(=O)(=O)c1ccc(C(F)(F)F)cn1)c1ccc2ccccc2n1
- Activity [1]: Active

Compound: O=C(NCCS(=O)(=O)c1ccc(C(F)(F)F)cn1)c1cccc2ccncc12
- Activity [1]: Active

Compound: O=C(NCCS(=O)(=O)c1ccc(C(F)(F)F)cn1)c1ccc2ccccc2c1
- pIC50 [3]: 6.49
- Activity [10]: Active
- pIC50 [4]: 6.35
- Activity [5]: inactive
- Activity [2]: Active
- pIC50 [6]: 6.03
- pIC50 [7]: 6.12
- Activity [11]: Active
- Activity [12]: Active
- pIC50 [8]: 5.71
- Activity [9]: inactive
- Activity [1]: Active
- Activity [13]: Active

Compound: O=C(NCCS(=O)(=O)c1ccc(C(F)(F)F)cn1)c1ccnc2ccccc12
- Activity [14]: Active
- Activity [1]: Active

Compound: O=C(c1ccc2ccccc2c1)N(CCS(=O)(=O)c1ccc(C(F)(F)F)cn1)Cc1ccccc1
- Activity [1]: Active

Compound: O=C(NCCS(=O)(=O)c1ccc(C(F)(F)F)cn1)c1ccc2ncccc2c1
- Activity [1]: Active

Compound: O=C(NCCS(=O)(=O)c1ccc(C(F)(F)F)cn1)c1cccc2cccnc12
- Activity [1]: Active

Compound: O=C(NCCS(=O)(=O)c1ccc(C(F)(F)F)cn1)c1cnc2ccccc2c1
- pIC50 [3]: 5.84
- Activity [10]: Active
- pIC50 [4]: 5.63
- Activity [5]: inactive
- Activity [2]: Active
- pIC50 [15]: 6.62
- pIC50 [6]: 4.75
- pIC50 [7]: 5.17
- Activity [12]: Active
- Activity [9]: inactive
- Activity [13]: Active

Compound: COc1ccc(C(=O)NCCS(=O)(=O)c2ccc(C(F)(F)F)cn2)cc1
- Activity [11]: Active
- Activity [1]: Active

Compound: O=C(NCCS(=O)(=O)c1ccc(C(F)(F)F)cn1)c1cccc2cnccc12
- Activity [1]: Active

Compound: O=C(NCCS(=O)(=O)c1ccc(C(F)(F)F)cn1)c1ccc2cnccc2c1
- Activity [1]: Active

Compound: O=C(NCCS(=O)(=O)c1ccc(C(F)(F)F)cn1)c1cncc2ccccc12
- Activity [1]: Active

Compound: O=C(NCCS(=O)(=O)c1ccc(C(F)(F)F)cn1)c1cc2ccccc2cn1
- Activity [1]: Active

Compound: CN(CCS(=O)(=O)c1ccc(C(F)(F)F)cn1)C(=O)c1ccc2ccccc2c1
- Activity [2]: Active
- Activity [1]: Active

Compound: O=C(CCCS(=O)(=O)c1ccc(C(F)(F)F)cn1)c1ccc2ccccc2c1
- Activity [1]: Active

Compound: O=C(CCCS(=O)(=O)c1ccc(C(F)(F)F)cn1)c1cccc2ccccc12
- Activity [1]: Active

Compound: O=C(NCCS(=O)(=O)c1ccc(C(F)(F)F)cn1)c1ccc2c(c1)CCCC2
- pIC50 [3]: 6.22
- Activity [10]: Active
- pIC50 [4]: 6.04
- Activity [5]: inactive
- Activity [2]: Active
- pIC50 [15]: 6.57
- pIC50 [6]: 5.71
- pIC50 [7]: 5.82
- Activity [12]: Active
- pIC50 [8]: 5.37
- Activity [9]: inactive
- Activity [13]: Active

Compound: CC(C)C(=O)NCCS(=O)(=O)c1ccc(C(F)(F)F)cn1
- Activity [1]: Active

Compound: O=C(NCCS(=O)(=O)c1ccc(C(F)(F)F)cn1)c1ccccc1
- Activity [1]: Active

Compound: O=C(NCCS(=O)(=O)c1ccc(C(F)(F)F)cn1)c1cccc2ccccc12
- Activity [2]: Active
- Activity [11]: Active
- Activity [1]: Active

Compound: O=C(NCCS(=O)(=O)c1ccc(C(F)(F)F)cn1)c1nccc2ccccc12
- Activity [2]: Active
- Activity [1]: Active

Compound: O=C(NCCS(=O)(=O)c1ccc(C(F)(F)F)cn1)c1cccc2ncccc12
- Activity [1]: Active

Compound: CN1CCN(c2ccc(/C=C(\C#N)c3ccccc3Br)cc2)CC1
- pIC50 [3]: 7.40
- pIC50 [4]: 7.43
- pIC50 [15]: 7.32
- pIC50 [6]: 7.52
- pIC50 [7]: 7.49
- pIC50 [8]: 7.54

Compound: O=C(NCCS(=O)(=O)c1ccc(C(F)(F)F)cn1)c1ccc2ccncc2c1
- Activity [2]: Active
- Activity [1]: Active

Compound: O=C(NCCS(=O)(=O)c1ccc(C(F)(F)F)cn1)c1ccc(Cl)cc1
- pIC50 [3]: 6.63
- pIC50 [4]: 6.55
- Activity [5]: inactive
- Activity [2]: Active
- pIC50 [15]: 8.92
- pIC50 [6]: 6.08
- pIC50 [7]: 6.19
- Activity [12]: Active
- pIC50 [8]: 5.88
- Activity [9]: inactive
- Activity [13]: Active

Compound: O=C(NCCS(=O)(=O)c1ccc(C(F)(F)F)cn1)c1ccc(F)cc1
- Activity [2]: Active
- Activity [11]: Active
- Activity [1]: Active

Compound: CC(C)(C)C(=O)NCCS(=O)(=O)c1ccc(C(F)(F)F)cn1
- Activity [1]: Active

Compound: O=C(NCCS(=O)(=O)c1ccc(C(F)(F)F)cn1)c1ccc2cccnc2c1
- Activity [1]: Active
